In patent US10369138B2, “Monobactam organic compounds for the treatment of bacterial infections” (Novartis AG, priority 2014, dated 2019):
Values after ≈ are worked out from the molar mass of the structure shown.

Key:
E. coli containing KPC-2 = assay: MIC by broth microdilution, E. coli containing KPC-2 (Ec KPC2 Iso); assay type: cell-based; conditions: Escherichia coli, read-out: Ec KPC2 Iso (MIC), E. coli containing KPC-2 (carbapenemase from Klebsiella pneumoniae)
Method in brief: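 Host E. coli BW25113 pspB carrying multicopy pBAD18-kan plasmid with constitutive TEM-promoter KPC-2 expression (periplasmic signal sequence); broth microdilution per CLSI in cation-adjusted Mueller-Hinton broth, inoculum ~5×10^5 CFU/mL, compounds twofold serially diluted from DMSO masters (10% DMSO in dilution series added).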

E. coli strain 25922 = assay: MIC by broth microdilution, E. coli strain 25922; assay type: cell-based; conditions: Escherichia coli, 25922, E. coli strain 25922; read-out: Ec 25922 (MIC)
Method in brief: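 CLSI broth microdilution in cation-adjusted Mueller-Hinton broth, inoculum about 5×10^5 CFU/mL, 10% DMSO from the diluted series, 20 h at 35-37° C. MIC is the lowest concentration preventing visible growth, read by eye and at 600 nm.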

Row | SMILES | MIC (E. coli containing KPC-2) | MIC (E. coli strain 25922)
1 | Cc1nn(C[C@@H]2[C@H](NC(=O)/C(=N\OC3(C(=O)O)CC3)c3csc(N)n3)C(=O)N2S(=O)(=O)O)nc1CN [Example 143, 1-(((Z)-(2-(((2R,3S)-2-((4-(aminomethyl)-5-methyl-2H-1,2,3-triazol-2-yl)methyl)-4-oxo-1-sulfoazetidin-3-yl)amino)-1-(2-aminothiazol-4-yl)-2-oxoethylidene)amino)oxy)cyclopropanecarboxylic acid] | 0.25 µg/mL (≈ 0.46 µM) | 0.5 µg/mL (≈ 0.92 µM)
2 | CC(C)(O/N=C(\C(=O)N[C@@H]1C(=O)N(S(=O)(=O)O)[C@@H]1Cn1ncc(CC#N)n1)c1csc(N)n1)C(=O)O [Example 33, 2-(((Z)-(1-(2-aminothiazol-4-yl)-2-(((2R,3S)-2-((4-(cyanomethyl)-2H-1,2,3-triazol-2-yl)methyl)-4-oxo-1-sulfoazetidin-3-yl)amino)-2-oxoethylidene)amino)oxy)-2-methylpropanoic acid] | 2 µg/mL (≈ 3.69 µM) | 2 µg/mL (≈ 3.69 µM)
3 | CC(C)(O/N=C(\C(=O)N[C@@H]1C(=O)N(S(=O)(=O)O)[C@@H]1Cn1ncnc1CN)c1csc(N)n1)C(=O)O [Example 12, 2-(((Z)-(2-(((2R,3S)-2-((5-(aminomethyl)-1H-1,2,4-triazol-1-yl)methyl)-4-oxo-1-sulfoazetidin-3-yl)amino)-1-(2-aminothiazol-4-yl)-2-oxoethylidene)amino)oxy)-2-methylpropanoic acid] | 4 µg/mL (≈ 7.53 µM) | 4 µg/mL (≈ 7.53 µM)
4 | NCCNC(=O)NCc1cnn(C[C@@H]2[C@H](NC(=O)/C(=N\OC3(C(=O)O)CC3)c3csc(N)n3)C(=O)N2S(=O)(=O)O)n1 [Example 135, 1-(((Z)-(2-(((2R,3S)-2-((4-((3-(2-aminoethyl)ureido)methyl)-2H-1,2,3-triazol-2-yl)methyl)-4-oxo-1-sulfoazetidin-3-yl)amino)-1-(2-aminothiazol-4-yl)-2-oxoethylidene)amino)oxy)cyclopropanecarboxylic acid] | 0.5 µg/mL (≈ 0.812 µM) | 0.5 µg/mL (≈ 0.812 µM)
5 | Nc1nc(/C(=N/OC2(C(=O)O)CC2)C(=O)N[C@@H]2C(=O)N(S(=O)(=O)O)[C@@H]2Cn2ncc(CN[C@@H]3CCNC3)n2)cs1 [Example 89, 1-(((Z)-(1-(2-aminothiazol-4-yl)-2-oxo-2-(((3S,4R)-2-oxo-4-((4-(((R)-pyrrolidin-3-ylamino)methyl)-2H-1,2,3-triazol-2-yl)methyl)-1-sulfoazetidin-3-yl)amino)ethylidene)amino)oxy)cyclopropanecarboxylic acid] | 1 µg/mL (≈ 1.67 µM) | 0.5 µg/mL (≈ 0.835 µM)
6 | CC(C)(O/N=C(\C(=O)N[C@@H]1C(=O)N(S(=O)(=O)O)[C@@H]1Cn1cnc(CN)n1)c1csc(N)n1)C(=O)O [Example 10, 2-(((Z)-(2-(((2R,3S)-2-((3-(aminomethyl)-1H-1,2,4-triazol-1-yl)methyl)-4-oxo-1-sulfoazetidin-3-yl)amino)-1-(2-aminothiazol-4-yl)-2-oxoethylidene)amino)oxy)-2-methylpropanoic acid] | 11 µg/mL (≈ 20.7 µM) | 4 µg/mL (≈ 7.53 µM)
7 | NCCOC(=O)NCc1cnn(C[C@@H]2[C@H](NC(=O)/C(=N\OC3(C(=O)O)CC3)c3csc(N)n3)C(=O)N2S(=O)(=O)O)n1 [Example 133, 1-(((Z)-(2-(((2R,3S)-2-((4-((((2-aminoethoxy)carbonyl)amino)methyl)-2H-1,2,3-triazol-2-yl)methyl)-4-oxo-1-sulfoazetidin-3-yl)amino)-1-(2-aminothiazol-4-yl)-2-oxoethylidene)amino)oxy)cyclopropanecarboxylic acid] | 0.5 µg/mL (≈ 0.811 µM) | 1 µg/mL (≈ 1.62 µM)
8 | NCC1CN(C(=O)OCc2cnn(C[C@@H]3[C@H](NC(=O)/C(=N\OC4(C(=O)O)CC4)c4csc(N)n4)C(=O)N3S(=O)(=O)O)n2)C1 [Example 149, 1-(((Z)-(2-(((2R,3S)-2-((4-(((3-(aminomethyl)azetidine-1-carbonyl)oxy)methyl)-2H-1,2,3-triazol-2-yl)methyl)-4-oxo-1-sulfoazetidin-3-yl)amino)-1-(2-aminothiazol-4-yl)-2-oxoethylidene)amino)oxy)cyclopropanecarboxylic acid] | 0.5 µg/mL (≈ 0.778 µM) | 0.5 µg/mL (≈ 0.778 µM)
9 | Cc1nnnn1C[C@@H]1[C@H](NC(=O)/C(=N\OC(C)(C)C(=O)O)c2csc(N)n2)C(=O)N1S(=O)(=O)O [Example 8, 2-(((Z)-(1-(2-aminothiazol-4-yl)-2-(((2R,3S)-2-((5-methyl-1H-tetrazol-1-yl)methyl)-4-oxo-1-sulfoazetidin-3-yl)amino)-2-oxoethylidene)amino)oxy)-2-methylpropanoic acid] | 2 µg/mL (≈ 3.86 µM) | 2 µg/mL (≈ 3.86 µM)
10 | N=C(NCc1cnn(C[C@@H]2[C@H](NC(=O)/C(=N\OC3(C(=O)O)CC3)c3csc(N)n3)C(=O)N2S(=O)(=O)O)n1)NCC1CNC1 [Example 126, 1-(((Z)-(1-(2-aminothiazol-4-yl)-2-(((2R,3S)-2-((4-((3-(azetidin-3-ylmethyl)guanidino)methyl)-2H-1,2,3-triazol-2-yl)methyl)-4-oxo-1-sulfoazetidin-3-yl)amino)-2-oxoethylidene)amino)oxy)cyclopropanecarboxylic acid] | 0.5 µg/mL (≈ 0.78 µM) | 0.5 µg/mL (≈ 0.78 µM)
11 | Nc1nc(/C(=N/OC2(C(=O)O)CC2)C(=O)N[C@@H]2C(=O)N(S(=O)(=O)O)[C@@H]2Cn2ncc(CN3CC(N)C3)n2)cs1 [Example 106, 1-(((Z)-(2-(((2R,3S)-2-((4-((3-aminoazetidin-1-yl)methyl)-2H-1,2,3-triazol-2-yl)methyl)-4-oxo-1-sulfoazetidin-3-yl)amino)-1-(2-aminothiazol-4-yl)-2-oxoethylidene)amino)oxy)cyclopropanecarboxylic acid] | ≤ 0.06 µg/mL | ≤ 0.06 µg/mL
12 | N=C(NC1CCNCC1)c1ccc(OC[C@H](O/N=C(\C(=O)N[C@@H]2C(=O)N(S(=O)(=O)O)[C@@H]2Cn2cncn2)c2nsc(N)n2)C(=O)O)cc1 [Example 75, (S)-2-(((Z)-(2-(((2R,3S)-2-((1H-1,2,4-triazol-1-yl)methyl)-4-oxo-1-sulfoazetidin-3-yl)amino)-1-(5-amino-1,2,4-thiadiazol-3-yl)-2-oxoethylidene)amino)oxy)-3-(4-(N-(piperidin-4-yl)carbamimidoyl)phenoxy)propanoic acid] | 0.5 µg/mL (≈ 0.707 µM) | 0.5 µg/mL (≈ 0.707 µM)
13 | Nc1nc(/C(=N/OC2(C(=O)O)CC2)C(=O)N[C@@H]2C(=O)N(S(=O)(=O)O)[C@@H]2CN2C(=O)COC2=O)cs1 [Example 95, 1-(((Z)-(1-(2-aminothiazol-4-yl)-2-(((2R,3S)-2-((2,4-dioxooxazolidin-3-yl)methyl)-4-oxo-1-sulfoazetidin-3-yl)amino)-2-oxoethylidene)amino)oxy)cyclopropanecarboxylic acid] | 0.125 µg/mL (≈ 0.235 µM) | 0.25 µg/mL (≈ 0.47 µM)
14 | N=C(N)NC[C@@H]1CN(C[C@@H]2[C@H](NC(=O)/C(=N\OC3(C(=O)O)CC3)c3csc(N)n3)C(=O)N2S(=O)(=O)O)C(=O)O1 [Example 26, 1-(((Z)-(1-(2-aminothiazol-4-yl)-2-(((2R,3S)-2-(((R)-5-(guanidinomethyl)-2-oxooxazolidin-3-yl)methyl)-4-oxo-1-sulfoazetidin-3-yl)amino)-2-oxoethylidene)amino)oxy)-cyclopropanecarboxylic acid] | ≤ 0.06 µg/mL | 0.125 µg/mL (≈ 0.212 µM)
15 | NCCCNCc1nnn(C[C@@H]2[C@H](NC(=O)/C(=N\OC3(C(=O)O)CC3)c3csc(N)n3)C(=O)N2S(=O)(=O)O)n1 [Example 96, 1-(((Z)-(2-(((2R,3S)-2-((5-(((3-aminopropyl)amino)methyl)-2H-tetrazol-2-yl)methyl)-4-oxo-1-sulfoazetidin-3-yl)amino)-1-(2-aminothiazol-4-yl)-2-oxoethylidene)amino)oxy)cyclopropanecarboxylic acid] | 1 µg/mL (≈ 1.7 µM) | 0.25 µg/mL (≈ 0.425 µM)
